Assay results: BindingDB's records for doi:10.1021/jm00024a010 (Boehringer Ingelheim Pharmaceuticals, 1995)

Columns and labels:
[1] = molecular target: T1, Gag-Pol polyprotein [600-1027,R876K]/[600-1155] (Human immunodeficiency virus 1, UniProt P03366, R876K); test: HIV-1 RT Assay
T1 construct: 600-1027; 600-1155

[2] = molecular target: T2, Gag-Pol polyprotein [600-1027,Y780C]/[600-1155,Y780C] (Human immunodeficiency virus 1, UniProt P03366, Y780C); test: HIV-1 RT Assay
T2 construct: 600-1027; 600-1155

Structure (SMILES): CCN1c2ncccc2C(=O)N(C)c2ccc(-c3cccc(N)c3)nc21 [5,11-dihydro-11-ethyl-5-methyl-2-(3-aminophenyl)-6H-dipyrido[3,2-b:2 ,3-e][1,4]diazepin-6-one]
- IC50 [1]: 70 nM

Structure (SMILES): CCN1c2ncccc2C(=O)Nc2c(C)cc(N(C)CCO)nc21 [2-ethyl-5-[(2-hydroxyethyl)(methyl)amino]-7-methyl-2,4,9,15-tetraazatricyclo[9.4.0.0^{3,8}]pentadeca-1(11),3,5,7,12,14-hexaen-10-one]
- IC50 [2]: > 1000 nM

Structure (SMILES): CCN1c2ncccc2C(=O)N(C)c2ccc(=O)[nH]c21 [2-ethyl-5-hydroxy-9-methyl-2,4,9,15-tetraazatricyclo[9.4.0.0^{3,8}]pentadeca-1(11),3,5,7,12,14-hexaen-10-one]
- IC50 [2]: > 1000 nM

Structure (SMILES): CCN1c2ncccc2C(=O)N(C)c2cccnc21
- IC50 ([1]; pH 7.8, 25 °C): 130 nM

Structure (SMILES): CCC=Nc1ccc2c(n1)N(CC)c1ncccc1C(=O)N2C
- IC50 [2]: > 1000 nM
- IC50 [1]: 390 nM

Structure (SMILES): CCN1c2ncccc2C(=O)N(C)c2ccc(-c3cncs3)nc21 [2-ethyl-9-methyl-5-(1,3-thiazol-5-yl)-2,4,9,15-tetraazatricyclo[9.4.0.0^{3,8}]pentadeca-1(11),3,5,7,12,14-hexaen-10-one]
- IC50 [2]: 240 nM
- IC50 [1]: 100 nM

Structure (SMILES): CCN1c2ncccc2C(=O)N(C)c2ccc(-c3cnco3)nc21 [2-ethyl-9-methyl-5-(1,3-oxazol-5-yl)-2,4,9,15-tetraazatricyclo[9.4.0.0^{3,8}]pentadeca-1(11),3,5,7,12,14-hexaen-10-one]
- IC50 [2]: 820 nM
- IC50 [1]: 220 nM

Structure (SMILES): CCN1c2ncccc2C(=O)Nc2c(C)cc(NCCO)nc21 [2-ethyl-5-[(2-hydroxyethyl)amino]-7-methyl-2,4,9,15-tetraazatricyclo[9.4.0.0^{3,8}]pentadeca-1(11),3,5,7,12,14-hexaen-10-one]
- IC50 [2]: > 1000 nM

Structure (SMILES): CCN1c2ncccc2C(=O)Nc2c(C)cc(C(C)(C)C)nc21 [5-tert-butyl-2-ethyl-7-methyl-2,4,9,15-tetraazatricyclo[9.4.0.0^{3,8}]pentadeca-1(11),3,5,7,12,14-hexaen-10-one]
- IC50 ([2]; pH 7.8, 25 °C): > 1000 nM
- IC50 ([1]; pH 7.8, 25 °C): > 1000 nM

Structure (SMILES): CCN1c2ncccc2C(=O)Nc2c(C)cc(C(C)C)nc21 [2-ethyl-7-methyl-5-(propan-2-yl)-2,4,9,15-tetraazatricyclo[9.4.0.0^{3,8}]pentadeca-1(11),3,5,7,12,14-hexaen-10-one]
- IC50 ([2]; pH 7.8, 25 °C): > 1000 nM

Structure (SMILES): CCN1c2ncccc2C(=O)Nc2c(C)cc(SC)nc21 [2-ethyl-7-methyl-5-(methylsulfanyl)-2,4,9,15-tetraazatricyclo[9.4.0.0^{3,8}]pentadeca-1(11),3,5,7,12,14-hexaen-10-one]
- IC50 [2]: > 1000 nM

Structure (SMILES): CCN1c2ncccc2C(=O)N(C)c2ccc(-c3nccs3)nc21 [5,11-dihydro-11-ethyl-5-methyl-2-(2-thiazolyl)-6H-dipyrido[3,2-b:2 ,3-e][1,4]diazepin-6-one]
- IC50 [2]: 1100 nM
- IC50 [1]: 380 nM

Structure (SMILES): CCN1c2ncccc2C(=O)Nc2c(C)cc(N3CCSCC3)nc21 [2-ethyl-7-methyl-5-(thiomorpholin-4-yl)-2,4,9,15-tetraazatricyclo[9.4.0.0^{3,8}]pentadeca-1(11),3,5,7,12,14-hexaen-10-one]
- IC50 [2]: > 1000 nM

Structure (SMILES): CCN1c2ncccc2C(=O)N(C)c2ccc(-c3ccsc3)nc21 [2-ethyl-9-methyl-5-(thiophen-3-yl)-2,4,9,15-tetraazatricyclo[9.4.0.0^{3,8}]pentadeca-1(11),3,5,7,12,14-hexaen-10-one]
- IC50 [1]: 100 nM

Structure (SMILES): CCN1c2ncccc2C(=O)Nc2c(C)cc(NCCCO)nc21 [2-ethyl-5-[(3-hydroxypropyl)amino]-7-methyl-2,4,9,15-tetraazatricyclo[9.4.0.0^{3,8}]pentadeca-1(11),3,5,7,12,14-hexaen-10-one]
- IC50 [2]: > 1000 nM

Structure (SMILES): CCN1c2ncccc2C(=O)N(C)c2ccc(-c3ncco3)nc21 [2-ethyl-9-methyl-5-(1,3-oxazol-2-yl)-2,4,9,15-tetraazatricyclo[9.4.0.0^{3,8}]pentadeca-1(11),3,5,7,12,14-hexaen-10-one]
- IC50 [2]: 560 nM
- IC50 [1]: 110 nM

Structure (SMILES): CCN1c2ncccc2C(=O)Nc2c(C)cc(C)nc21 [2-ethyl-5,7-dimethyl-2,4,9,15-tetraazatricyclo[9.4.0.0^{3,8}]pentadeca-1(11),3,5,7,12,14-hexaen-10-one]
- IC50 ([2]; pH 7.8, 25 °C): > 1000 nM

Structure (SMILES): CCN1c2ncccc2C(=O)N(C)c2ccc(-c3ccccn3)nc21 [2-ethyl-9-methyl-5-(pyridin-2-yl)-2,4,9,15-tetraazatricyclo[9.4.0.0^{3,8}]pentadeca-1(11),3,5,7,12,14-hexaen-10-one]
- IC50 [1]: 180 nM

Structure (SMILES): CCN1c2ncccc2C(=O)N(C)c2ccc(N)nc21 [5-amino-2-ethyl-9-methyl-2,4,9,15-tetraazatricyclo[9.4.0.0^{3,8}]pentadeca-1(11),3,5,7,12,14-hexaen-10-one]
- IC50 [2]: > 1000 nM
- IC50 [1]: > 1000 nM

Structure (SMILES): CCN1c2ncccc2C(=O)N(C)c2ccc(N3CCCCC3)nc21 [2-ethyl-9-methyl-5-(piperidin-1-yl)-2,4,9,15-tetraazatricyclo[9.4.0.0^{3,8}]pentadeca-1(11),3,5,7,12,14-hexaen-10-one]
- IC50 [2]: > 1000 nM

Structure (SMILES): CCN1c2ncccc2C(=O)N(C)c2ccc(-c3cccc(O)c3)nc21 [2-ethyl-5-(3-hydroxyphenyl)-9-methyl-2,4,9,15-tetraazatricyclo[9.4.0.0^{3,8}]pentadeca-1(11),3,5,7,12,14-hexaen-10-one]
- IC50 [1]: 100 nM

Structure (SMILES): CN1C(=O)c2cccnc2N(C2CC2)c2nc(Cl)ccc21 [5-chloro-2-cyclopropyl-9-methyl-2,4,9,15-tetraazatricyclo[9.4.0.0^{3,8}]pentadeca-1(11),3,5,7,12,14-hexaen-10-one]
- IC50 ([1]; pH 7.8, 25 °C): 90 nM
